Measurements: ChEMBL document CHEMBL1131189, “Conformationally restricted analogues of 1N,12N-bisethylspermine: synthesis and growth inhibitory effects on human tumor cell lines” (1998)

Tests used:
DU-145 [1] = assay: Growth inhibitory activity was measured for human DU145 tumor cell line.; type: functional; details: read-out: ID50 (the source's name)
PC-3 = assay: Growth inhibitory activity was measured for human PC-3 tumor cell line.; type: functional; details: read-out: ID50 (the source's name)
A549 = assay: Growth inhibitory activity was measured for human A549 tumor cell line.; type: functional; details: read-out: ID50 (the source's name)
DU-145 [2] = assay: The concentration levels of putrescine (PU) evaluated in DU145 cells treated with the compound concentration of 10 uM on fifth day of treatment.; type: functional, cell-based; details: Homo sapiens
DU-145 [3] = assay: The concentration levels of putrescine (PU) evaluated in DU145 cells treated with the compound concentration of 10 uM on third day of treatment.; type: functional, cell-based; details: Homo sapiens
DU-145 [4] = assay: The concentration levels of spermidine (SD) evaluated in DU145 cells treated with the compound concentration of 10 uM on fifth day of treatment.; type: functional, cell-based; details: Homo sapiens
DU-145 [5] = assay: The concentration levels of spermidine (SD), evaluated in DU145 cells treated with the compound concentration of 10 uM on third day of treatment.; type: functional, cell-based; details: Homo sapiens
DU-145 [6] = assay: The concentration levels of analogue evaluated in DU145 cells treated with the compound concentration of 10 uM on fifth day of treatment.; type: functional, cell-based; details: Homo sapiens
DU-145 [7] = assay: The concentration levels of analogue evaluated in DU145 cells treated with the compound concentration of 10 uM on third day of treatment.; type: functional, cell-based; details: Homo sapiens
DU-145 [8] = assay: The concentration levels of spermine (SP) evaluated in DU145 cells treated with the compound concentration of 10 uM on fifth day of treatment.; type: functional, cell-based; details: Homo sapiens
DU-145 [9] = assay: The concentration levels of spermine (SP), evaluated in DU145 cells treated with the compound concentration of 10 uM on third day of treatment.; type: functional, cell-based; details: Homo sapiens
HT-29 = assay: Growth inhibitory activity was measured for human HT-29 tumor cell line.; type: functional; details: Homo sapiens, HT-29; read-out: ID50 (the source's name)
MCF7 = assay: Growth inhibitory activity was measured for human MCF-7 tumor cell line.; type: functional; details: read-out: ID50 (the source's name)
U-251 = assay: Growth inhibitory activity was measured for human U251MG NCI tumor cell line.; type: functional; details: read-out: ID50 (the source's name)
DU-145 [10] = assay: The concentration levels of putrescine (PU) evaluated in DU145 cells treated with the compound concentration of 5 uM on fifth day of treatment.; type: functional, cell-based; details: Homo sapiens
DU-145 [11] = assay: The concentration levels of putrescine (PU) evaluated in DU145 cells treated with the compound concentration of 5 uM on third day of treatment.; type: functional, cell-based; details: Homo sapiens
DU-145 [12] = assay: The concentration levels of spermidine (SD) evaluated in DU145 cells treated with the compound concentration of 0.02 uM on fifth day of treatment.; type: functional, cell-based; details: Homo sapiens
DU-145 [13] = assay: The concentration levels of spermidine (SD) evaluated in DU145 cells treated with the compound concentration of 5 uM on fifth day of treatment.; type: functional, cell-based; details: Homo sapiens
DU-145 [14] = assay: The concentration levels of spermidine (SD), evaluated in DU145 cells treated with the compound concentration of 0.02 uM on third day of treatment.; type: functional, cell-based; details: Homo sapiens
DU-145 [15] = assay: The concentration levels of spermidine (SD), evaluated in DU145 cells treated with the compound concentration of 5 uM on third day of treatment.; type: functional, cell-based; details: Homo sapiens
DU-145 [16] = assay: The concentration levels of analogue evaluated in DU145 cells treated with the compound concentration of 0.02 uM on fifth day of treatment.; type: functional, cell-based; details: Homo sapiens
DU-145 [17] = assay: The concentration levels of analogue evaluated in DU145 cells treated with the compound concentration of 0.02 uM on third day of treatment.; type: functional, cell-based; details: Homo sapiens
DU-145 [18] = assay: The concentration levels of analogue evaluated in DU145 cells treated with the compound concentration of 5 uM on fifth day of treatment.; type: functional, cell-based; details: Homo sapiens
DU-145 [19] = assay: The concentration levels of spermine (SP) evaluated in DU145 cells treated with the compound concentration of 0.02 uM on fifth day of treatment.; type: functional, cell-based; details: Homo sapiens
DU-145 [20] = assay: The concentration levels of spermine (SP) evaluated in DU145 cells treated with the compound concentration of 5 uM on fifth day of treatment.; type: functional, cell-based; details: Homo sapiens
DU-145 [21] = assay: The concentration levels of spermine (SP), evaluated in DU145 cells treated with the compound concentration of 5 uM on third day of treatment.; type: functional, cell-based; details: Homo sapiens
DU-145 [22] = assay: The concentration levels of analogue evaluated in DU145 cells treated with the compound concentration of 5 uM on third day of treatment.; type: functional, cell-based; details: Homo sapiens
DU-145 [23] = assay: The concentration levels of putrescine (PU) evaluated in DU145 cells treated with the compound concentration of 0.02 uM on fifth day of treatment.; type: functional, cell-based; details: Homo sapiens
DU-145 [24] = assay: The concentration levels of putrescine (PU) evaluated in DU145 cells treated with the compound concentration of 0.02 uM on third day of treatment.; type: functional, cell-based; details: Homo sapiens
DU-145 [25] = assay: The concentration levels of spermine (SP), evaluated in DU145 cells treated with the compound concentration of 0.02 uM on third day of treatment.; type: functional, cell-based; details: Homo sapiens

CCNCCCNCC1CCC1CNCCCNCC (stereo in doubt; 19)
IC50 (DU-145 [1]): 50 nM | IC50 (PC-3): > 31200 nM

CCNCCCNCc1ccccc1CNCCCNCC
IC50 (A549; Homo sapiens, A549): > 31200 nM | Concentration (nM (10e6*cells)-1) (DU-145 [2]): 0.06 | Concentration (nM (10e6*cells)-1) (DU-145 [3]): 0.12 | Concentration (nM (10e6*cells)-1) (DU-145 [4]): 1.84 | Concentration (nM (10e6*cells)-1) (DU-145 [5]): 1.5 | Concentration (nM (10e6*cells)-1) (DU-145 [6]): 1.25 | Concentration (nM (10e6*cells)-1) (DU-145 [7]): 0.82 | Concentration (nM (10e6*cells)-1) (DU-145 [8]): 2.13 | Concentration (nM (10e6*cells)-1) (DU-145 [9]): 2.7 | IC50 (HT-29): > 31200 nM | IC50 (MCF7): > 31200 nM | IC50 (PC-3; Homo sapiens, PC-3): > 31200 nM | IC50 (U-251): > 31200 nM

CCNCCCNC/C=C\CNCCCNCC
IC50 (A549; Homo sapiens, A549): 250 nM | IC50 (DU-145 [1]; Homo sapiens, DU-145): 50 nM | Concentration (nM (10e6*cells)-1) (DU-145 [10]): 0.03 | Concentration (nM (10e6*cells)-1) (DU-145 [11]): 0.06 | Concentration (nM (10e6*cells)-1) (DU-145 [12]): 1.73 | Concentration (nM (10e6*cells)-1) (DU-145 [13]): 0.02 | Concentration (nM (10e6*cells)-1) (DU-145 [14]): 1.79 | Concentration (nM (10e6*cells)-1) (DU-145 [15]): 0.02 | Concentration (nM (10e6*cells)-1) (DU-145 [16]): 0.03 | Concentration (nM (10e6*cells)-1) (DU-145 [17]): 0.04 | Concentration (nM (10e6*cells)-1) (DU-145 [18]): 2.54 | Concentration (nM (10e6*cells)-1) (DU-145 [19]): 1.71 | Concentration (nM (10e6*cells)-1) (DU-145 [20]): 0.07 | Concentration (nM (10e6*cells)-1) (DU-145 [21]): 0.09 | Concentration (nM (10e6*cells)-1) (DU-145 [22]): 2.76 | Concentration (nM (10e6*cells)-1) (DU-145 [23]): 0.04 | Concentration (nM (10e6*cells)-1) (DU-145 [24]): 0.11 | Concentration (nM (10e6*cells)-1) (DU-145 [25]): 2.99

CCNCCCNCC1CC1CNCCCNCC (stereo in doubt; 9)
IC50 (A549): 120 nM | IC50 (DU-145 [1]): 20 nM | IC50 (U-251): 100 nM

CCNCCCNCCCCNCCCNCC [BIS(ETHYL)SPERMINE]
IC50 (A549; Homo sapiens, A549): 200 nM | IC50 (DU-145 [1]; Homo sapiens, DU-145): 40 nM | IC50 (HT-29): 430 nM | IC50 (MCF7): 550 nM | IC50 (PC-3; Homo sapiens, PC-3): 240 nM | IC50 (U-251): 200 nM
